In ChEMBL document CHEMBL3217637, “Temocene: the porphycene analogue of temoporfin (Foscan)” (Medchemcomm, 2011):
The source made the active and inactive calls. The calls are words filed in the database; no cut-off is given here.

How the values were obtained:
[1] = Photostability of the compound in aerated acetone under irradiation at 532 nm laser pulses; assay type: physicochemical; set-up: dose or concentration left out as unconfirmed
HeLa [2] = test: Cytotoxicity against human HeLa cells assessed as decrease in cell viability under dark condition after 18 hrs by MTT assay; assay type: cell-based
[3] = Cellular uptake in cytoplasm of human HeLa cells under ultraviolet irradiation at 365 nm at 1 to 10 uM after 18 hrs by mitotracker green staining-based fluorescence microscopic analysis; assay type: ADME, cell-based
[4] = Cellular uptake in mitochondria of human HeLa cells under ultraviolet irradiation at 365 nm at 1 to 10 uM after 18 hrs by mitotracker green staining-based fluorescence microscopic analysis; assay type: ADME
[5] = Cellular uptake in mitochondria of human HeLa cells under prolonged irradiation at 365 nm up to 10 uM after 18 hrs by mitotracker green staining-based fluorescence microscopic analysis; assay type: ADME
HeLa [6] = test: Phototoxicity against human HeLa cells assessed as decrease in cell viability at > 5 uM preincubated for 18 hrs followed by 3.5 J/cm'2 of photoirradiation measured after 24 hrs by MTT assay; assay type: functional, cell-based
HeLa [7] = test: Cellular uptake in human HeLa cells under ultraviolet irradiation at 365 nm at 0.5 uM after 18 hrs by mitotracker green staining-based fluorescence microscopic analysis; assay type: ADME, cell-based
HeLa [8] = test: Phototoxicity against human HeLa cells assessed as decrease in cell viability at < 5 uM preincubated for 18 hrs followed by > 3.5 J/cm'2 of photoirradiation measured after 24 hrs by MTT assay; assay type: functional, cell-based
[9] = Cellular uptake in cytoplasm of human HeLa cells under prolonged irradiation at 365 nm up to 10 uM after 18 hrs by mitotracker green staining-based fluorescence microscopic analysis; assay type: ADME, cell-based

In the case of `Oc1cccc(-c2c3nc(c(-c4cccc(O)c4)c4ccc([nH]4)c(-c4cccc(O)c4)c4nc(c(-c5cccc(O)c5)c5ccc2[nH]5)CC4)C=C3)c1` [TEMOPORFIN], the Stability [1] is reported as “Stable” and the Activity (HeLa [2]) is reported as “Toxic”.
In the case of `Oc1cccc(C2=Cc3nc2ccc2[nH]c(cc2-c2cccc(O)c2)c2nc(ccc4[nH]c3cc4-c3cccc(O)c3)C(c3cccc(O)c3)=C2)c1`, the Drug uptake [3] is reported as “Active”, the Stability [1] is reported as “Stable” and the Drug uptake [4] is reported as “Active”. For the same compound, the Drug uptake [5] was “Active”, the Activity (HeLa [6]) was “Active” and the Drug uptake (HeLa [7]) was “Not Active”. For the same compound, the Activity (HeLa [8]) was “Active”, the Activity (HeLa [2]) was “Non-toxic” and the Drug uptake [9] was “Active”.
